{"source": "paper PMC5400565", "about": "“Real-time near-infrared fluorescence imaging using cRGD-ZW800-1 for intraoperative visualization of multiple cancer types” (Oncotarget, 2017)", "key": {"U-87 MG cells": {"system": "U-87 MG cells", "assay": "In vitro competition with unlabeled cRGD, U-87 MG", "type": "cell-based, human", "conditions": "500 nM cRGD-ZW800-1 + 500 nM unlabeled cRGD (1:1), 37°C, 2 h, vs cells without unlabeled cRGD, triplicate, p = 0.02", "experimental": "For in vitro competition, U-87 MG (αvβ3 and αvβ5 positive, αvβ6 negative) and HT-29 (αvβ3 negative, αvβ5 and αvβ6 positive) cells were plated in a 96-well plate at a density of ∼40,000 and ∼60,000 cells per well, respectively. Subsequently, 500 nM of cRGD-ZW800-1 was simultaneously added to the cells and incubated at 37°C for 2 h. At the same time, half of the cells were also incubated with 500 nM unlabeled (“cold”) cRGD.\nBoth the cells in the binding and the competition experiment were then washed twice and imaged with the Odyssey NIR scanner (LI-COR Biosciences, Lincoln, Nebraska: focus offset 3 mm; 800-nm channel). Next, cells were permeabilized with a 40/60 mixture of acetone and methanol followed by a washing step and a 5 min incubation with ToPro3 (1/2000, Invitrogen), a far red fluorescent dye (642/661nm). The wells were then washed and again imaged with the Odyssey scanner (focus offset 3 mm; 700-nm channel) to quantify the number of cells in each well. The experiments were performed in triplicate."}, "PDE4D2": {"target": "T1, PDE4D2 (Homo sapiens, UniProt Q08499)", "T1 construct": "Eurofins Cerep SA (contract screen)", "T1 sequence (Q08499 303-809)": "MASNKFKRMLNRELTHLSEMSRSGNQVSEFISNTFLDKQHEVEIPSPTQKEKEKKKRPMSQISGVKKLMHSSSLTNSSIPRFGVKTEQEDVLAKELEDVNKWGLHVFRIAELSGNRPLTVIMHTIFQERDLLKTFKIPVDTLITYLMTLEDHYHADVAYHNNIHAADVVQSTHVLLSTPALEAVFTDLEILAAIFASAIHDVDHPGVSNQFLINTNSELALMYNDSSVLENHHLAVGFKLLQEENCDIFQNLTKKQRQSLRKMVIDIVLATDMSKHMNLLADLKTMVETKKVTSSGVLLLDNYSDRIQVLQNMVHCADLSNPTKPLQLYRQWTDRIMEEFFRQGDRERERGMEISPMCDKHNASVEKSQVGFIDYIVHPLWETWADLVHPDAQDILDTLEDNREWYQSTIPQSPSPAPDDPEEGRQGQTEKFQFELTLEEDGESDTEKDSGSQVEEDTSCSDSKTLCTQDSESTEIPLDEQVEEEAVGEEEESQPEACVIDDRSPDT", "assay": "Off-target screening (Eurofins Cerep), PDE4D2", "type": "biochemical"}, "OSC-19 oral tumors": {"system": "OSC-19 oral tumors", "assay": "NIR fluorescence imaging, OSC-19 oral tumors", "type": "in vivo, mice", "conditions": "orthotopic OSC-19 tongue model; 10 nmol; 4 h; Pearl; n = 2; mean ± SD", "experimental": "To induce subcutaneous tumors, colorectal cancer cells (HT-29) were injected at 4 sites on the back (500,000 cells per spot). Subsequently, these colorectal tumor cells were transplanted on the colon of other mice, as described by Tseng et al.. Approximately 500,000 pancreatic tumor cells (BxPC-3) were injected into the pancreas, as previously described by Kim et al.. Approximately 40,000 oral tumor cells (OSC-19) were injected in the tongue, as previously described by van Driel et al.. Approximately 500,000 breast tumor cells (MCF-7) were injected in both sides of the mammary fat pad to induce breast cancer tumors.\nAll animals were imaged using a Pearl® imager (LI-COR, Lincoln, NE) and an original FLARE® prototype. Animals with HT-29 tumors were imaged at 4 and 24 h post injection; animals with BxPC-3 and OSC-19 tumors at 4 h only. Animals with MCF-7 tumors were imaged at 0.5, 1, 2, 4, 6, 8, 24 and 48 h post injection. […] TBRs were calculated by dividing the tumor signal by the background signal. […]\nMice bearing orthotopic OSC-19 tumors (n = 2) were administrated with 10 nmol cRGD-ZW800-1 and imaged at 4 h. […] In vivo TBRs were calculated by dividing the mean fluorescence signals of tumors by the mean of surrounding tissue. Ex vivo organ-to-tumor ratios were calculated by dividing the fluorescence intensity of the organ by that of the tumor."}, "Adrenergic α2A": {"target": "T2, Adrenergic α2A (Homo sapiens, UniProt P08913)", "T2 construct": "Eurofins Cerep SA (contract screening)", "T2 sequence (P08913 whole entry)": "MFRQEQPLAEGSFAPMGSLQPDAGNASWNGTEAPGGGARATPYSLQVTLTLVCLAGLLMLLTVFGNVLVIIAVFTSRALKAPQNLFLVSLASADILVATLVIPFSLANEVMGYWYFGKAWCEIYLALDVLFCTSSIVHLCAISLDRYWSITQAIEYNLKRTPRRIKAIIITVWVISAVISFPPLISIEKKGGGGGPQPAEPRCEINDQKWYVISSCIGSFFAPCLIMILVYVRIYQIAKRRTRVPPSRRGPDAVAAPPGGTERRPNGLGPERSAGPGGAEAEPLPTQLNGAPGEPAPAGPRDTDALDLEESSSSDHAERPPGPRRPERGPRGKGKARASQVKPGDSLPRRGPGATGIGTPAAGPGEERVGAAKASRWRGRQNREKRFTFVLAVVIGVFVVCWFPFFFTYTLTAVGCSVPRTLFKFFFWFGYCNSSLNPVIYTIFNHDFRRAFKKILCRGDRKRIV", "assay": "Off-target screening (Eurofins Cerep), α2A", "type": "binding"}, "[1]": {"system": "GABA channels BZD (central)", "assay": "Off-target screening (Eurofins Cerep), BZD (central)", "type": "binding", "description": "Off-target interactions are binding of tracers to other components on the cell surface than the actual target site. These non-specific interactions are often of low affinity and easily missed, but can have significant effects. We outsourced the screening for in vitro for off-target interactions of cRGD-ZW800-1 to Eurofins Cerep SA, Le bois l’Evêque, France. They assessed the percentage of inhibition of a reference compound in 44 selected targets, including G protein-coupled receptors (GPCRs), transporters, ion channels, nuclear receptors, kinases and other non-kinase enzymes. These targets were recommended by four major pharmaceutical companies. The complete list is included in Supplementary Table 1 of the Supplementary Data. Each assay was performed twice using 10 μM cRGD-ZW800-1 and a reference compound. Inhibition higher than 50% was considered to represent a significant effect of cRGD-ZW800-1. Results showing between 20% and 50% were considered weak to moderate effects, while lower than 20% was not considered significant and mostly attributable to variability of the signal around the control level."}, "Histamine H2": {"target": "T3, Histamine H2 (Homo sapiens, UniProt P25021)", "T3 construct": "Eurofins Cerep SA (contract screening)", "assay": "Off-target screening (Eurofins Cerep), H2", "type": "binding"}, "Acetylcholinesterase": {"target": "T4, Acetylcholinesterase (Homo sapiens, UniProt P22303)", "T4 construct": "Eurofins Cerep SA (contract screen)", "assay": "Off-target screening (Eurofins Cerep), acetylcholinesterase", "type": "biochemical"}, "[2]": {"target": "AR (steroid nuclear receptor) (Homo sapiens, UniProt P10275)", "sequence (P10275 whole entry)": "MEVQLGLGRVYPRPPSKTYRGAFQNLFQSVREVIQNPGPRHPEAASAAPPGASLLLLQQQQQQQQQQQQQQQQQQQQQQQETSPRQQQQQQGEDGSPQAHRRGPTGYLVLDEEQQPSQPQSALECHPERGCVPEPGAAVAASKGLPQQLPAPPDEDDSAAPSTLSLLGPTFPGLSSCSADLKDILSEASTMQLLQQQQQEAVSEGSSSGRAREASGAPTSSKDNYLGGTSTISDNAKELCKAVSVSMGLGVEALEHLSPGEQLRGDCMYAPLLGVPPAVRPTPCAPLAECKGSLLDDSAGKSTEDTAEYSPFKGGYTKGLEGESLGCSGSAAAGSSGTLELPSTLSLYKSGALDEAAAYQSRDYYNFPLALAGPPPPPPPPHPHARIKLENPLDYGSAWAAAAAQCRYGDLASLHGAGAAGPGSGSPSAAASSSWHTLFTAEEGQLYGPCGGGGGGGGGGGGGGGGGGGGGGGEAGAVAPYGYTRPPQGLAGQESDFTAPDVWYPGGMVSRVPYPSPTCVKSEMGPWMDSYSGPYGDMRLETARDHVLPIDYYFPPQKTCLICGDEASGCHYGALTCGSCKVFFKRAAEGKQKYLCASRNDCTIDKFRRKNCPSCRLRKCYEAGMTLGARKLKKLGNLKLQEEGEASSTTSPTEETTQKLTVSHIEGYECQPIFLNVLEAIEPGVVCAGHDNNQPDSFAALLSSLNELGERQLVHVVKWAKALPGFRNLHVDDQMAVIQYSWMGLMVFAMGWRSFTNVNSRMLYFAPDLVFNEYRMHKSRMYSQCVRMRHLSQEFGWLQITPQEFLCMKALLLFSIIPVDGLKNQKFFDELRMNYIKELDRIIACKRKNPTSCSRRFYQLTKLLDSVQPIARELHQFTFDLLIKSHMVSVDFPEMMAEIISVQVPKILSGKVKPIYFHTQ", "assay": "Off-target screening (Eurofins Cerep), AR", "type": "binding"}, "Adrenergic β1": {"target": "T5, Adrenergic β1 (Homo sapiens, UniProt P08588)", "T5 construct": "Eurofins Cerep SA (contract screening)", "T5 sequence (P08588 whole entry)": "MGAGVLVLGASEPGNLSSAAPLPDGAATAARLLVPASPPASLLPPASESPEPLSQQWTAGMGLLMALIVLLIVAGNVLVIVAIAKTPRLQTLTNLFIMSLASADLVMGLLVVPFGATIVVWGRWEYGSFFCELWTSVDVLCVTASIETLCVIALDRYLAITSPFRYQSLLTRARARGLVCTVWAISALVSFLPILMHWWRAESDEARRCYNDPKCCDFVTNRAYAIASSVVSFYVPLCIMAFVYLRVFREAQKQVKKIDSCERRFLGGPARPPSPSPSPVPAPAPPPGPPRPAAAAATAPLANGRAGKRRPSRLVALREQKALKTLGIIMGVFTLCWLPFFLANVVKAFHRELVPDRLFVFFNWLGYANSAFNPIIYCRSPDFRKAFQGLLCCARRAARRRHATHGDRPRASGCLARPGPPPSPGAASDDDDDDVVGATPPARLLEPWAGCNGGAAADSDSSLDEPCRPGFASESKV", "assay": "Off-target screening (Eurofins Cerep), β1", "type": "binding"}, "Histamine H1": {"target": "T6, Histamine H1 (Homo sapiens, UniProt P35367)", "T6 construct": "Eurofins Cerep SA (contract screening)", "T6 sequence (P35367 whole entry)": "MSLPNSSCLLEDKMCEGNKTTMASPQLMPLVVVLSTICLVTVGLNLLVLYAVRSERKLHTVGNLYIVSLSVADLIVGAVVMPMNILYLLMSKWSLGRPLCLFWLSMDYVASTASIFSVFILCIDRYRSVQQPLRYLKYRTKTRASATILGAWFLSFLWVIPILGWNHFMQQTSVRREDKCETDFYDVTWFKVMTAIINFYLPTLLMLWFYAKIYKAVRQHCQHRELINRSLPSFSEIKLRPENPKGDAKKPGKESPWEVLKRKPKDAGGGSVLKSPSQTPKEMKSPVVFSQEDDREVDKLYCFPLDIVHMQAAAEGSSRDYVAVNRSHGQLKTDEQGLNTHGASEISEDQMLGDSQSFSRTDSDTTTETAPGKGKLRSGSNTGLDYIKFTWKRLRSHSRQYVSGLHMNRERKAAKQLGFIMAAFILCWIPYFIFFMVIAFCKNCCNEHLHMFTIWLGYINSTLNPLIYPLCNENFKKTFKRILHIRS", "assay": "biochemical", "type": "binding"}, "Opioid µ (MOP)": {"target": "T7, Opioid µ (MOP) (Homo sapiens, UniProt P35372)", "T7 construct": "Eurofins Cerep SA (contract screening)", "T7 sequence (P35372 whole entry)": "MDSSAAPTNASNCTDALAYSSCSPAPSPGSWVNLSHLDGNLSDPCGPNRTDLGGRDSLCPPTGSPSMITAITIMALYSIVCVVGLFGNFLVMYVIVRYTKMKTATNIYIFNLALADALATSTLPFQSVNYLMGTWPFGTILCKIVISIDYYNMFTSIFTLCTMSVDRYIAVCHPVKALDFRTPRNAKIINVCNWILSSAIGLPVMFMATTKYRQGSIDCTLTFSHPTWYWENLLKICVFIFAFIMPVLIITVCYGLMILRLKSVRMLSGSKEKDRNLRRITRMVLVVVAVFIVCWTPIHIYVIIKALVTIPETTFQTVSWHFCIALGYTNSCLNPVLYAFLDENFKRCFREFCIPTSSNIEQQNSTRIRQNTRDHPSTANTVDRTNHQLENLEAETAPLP", "assay": "Off-target screening (Eurofins Cerep), µ (MOP)", "type": "binding"}, "[3]": {"target": "T8, Nicotinic channels N neuronal α4β2 (Homo sapiens, UniProt P17787+P43681)", "T8 construct": "Eurofins Cerep SA (contract screen)", "T8 sequence (P43681 29-627 limits assumed)": "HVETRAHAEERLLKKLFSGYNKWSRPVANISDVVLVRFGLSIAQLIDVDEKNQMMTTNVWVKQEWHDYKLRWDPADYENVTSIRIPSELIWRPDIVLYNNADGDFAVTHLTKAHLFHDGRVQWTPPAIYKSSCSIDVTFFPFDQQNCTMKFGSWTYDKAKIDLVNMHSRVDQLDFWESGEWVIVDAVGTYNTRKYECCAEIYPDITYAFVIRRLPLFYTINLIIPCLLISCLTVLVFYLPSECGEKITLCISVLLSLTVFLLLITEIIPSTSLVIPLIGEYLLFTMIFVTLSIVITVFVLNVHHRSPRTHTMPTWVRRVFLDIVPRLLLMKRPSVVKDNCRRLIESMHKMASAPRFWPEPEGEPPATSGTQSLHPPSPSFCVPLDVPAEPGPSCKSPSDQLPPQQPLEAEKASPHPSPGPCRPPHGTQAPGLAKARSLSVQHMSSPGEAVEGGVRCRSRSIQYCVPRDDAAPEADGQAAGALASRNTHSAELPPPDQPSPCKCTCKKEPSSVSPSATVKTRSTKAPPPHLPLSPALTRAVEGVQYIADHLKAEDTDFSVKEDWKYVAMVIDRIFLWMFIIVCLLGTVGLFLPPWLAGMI", "T8 sequence (P17787 26-502)": "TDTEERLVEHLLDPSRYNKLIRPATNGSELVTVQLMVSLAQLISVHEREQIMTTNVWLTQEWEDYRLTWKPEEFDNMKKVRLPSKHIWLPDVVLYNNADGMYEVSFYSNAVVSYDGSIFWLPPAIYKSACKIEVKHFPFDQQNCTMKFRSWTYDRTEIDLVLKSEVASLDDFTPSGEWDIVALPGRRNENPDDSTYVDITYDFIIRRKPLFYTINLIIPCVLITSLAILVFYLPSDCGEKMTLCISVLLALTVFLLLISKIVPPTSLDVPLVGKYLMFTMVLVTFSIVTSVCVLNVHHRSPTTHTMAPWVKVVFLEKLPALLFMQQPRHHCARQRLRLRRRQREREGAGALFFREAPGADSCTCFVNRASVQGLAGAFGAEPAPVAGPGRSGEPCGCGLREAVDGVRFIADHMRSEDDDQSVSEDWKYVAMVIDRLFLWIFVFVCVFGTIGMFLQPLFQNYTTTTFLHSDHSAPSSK", "assay": "Off-target screening (Eurofins Cerep), N neuronal α4β2", "type": "binding"}, "Muscarinic M3": {"target": "T9, Muscarinic M3 (Homo sapiens, UniProt P20309)", "T9 construct": "Eurofins Cerep SA (contract screening)", "assay": "Off-target screening (Eurofins Cerep), M3", "type": "binding"}, "Endothelin ETA": {"target": "T10, Endothelin ETA (Homo sapiens, UniProt P25101)", "T10 construct": "Eurofins Cerep SA (contract screening)", "T10 sequence (P25101 21-427)": "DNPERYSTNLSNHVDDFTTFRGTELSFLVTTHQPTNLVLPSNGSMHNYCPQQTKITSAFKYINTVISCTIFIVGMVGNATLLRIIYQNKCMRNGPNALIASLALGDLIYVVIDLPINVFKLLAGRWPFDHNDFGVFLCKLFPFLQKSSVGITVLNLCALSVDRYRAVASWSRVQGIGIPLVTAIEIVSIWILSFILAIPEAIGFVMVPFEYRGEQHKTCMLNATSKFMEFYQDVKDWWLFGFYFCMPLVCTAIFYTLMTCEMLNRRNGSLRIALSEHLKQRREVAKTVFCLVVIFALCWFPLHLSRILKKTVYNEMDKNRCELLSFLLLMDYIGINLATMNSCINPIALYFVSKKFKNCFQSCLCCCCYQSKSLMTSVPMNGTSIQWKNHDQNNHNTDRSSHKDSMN", "assay": "Off-target screening (Eurofins Cerep), ETA", "type": "binding"}, "[4]": {"conditions": "read-out: % Inhibition of Control Specific Binding"}, "[5]": {"conditions": "read-out: % of Control Specific Binding Mean"}, "[6]": {"conditions": "10 μM, mean of 2, read-out: % of Control Specific Binding Mean"}, "[7]": {"conditions": "10 μM cRGD-ZW800-1, format H, Ag, performed twice, read-out: % Inhibition of Control Specific Binding"}}, "data": [{"compound": "CC1(C)C(/C=C/C2=C(Oc3ccc(CCC(=O)NCCCC[C@@H]4NC(=O)[C@@H](Cc5ccc(O)cc5)NC(=O)[C@H](CC(=O)O)NC(=O)CNC(=O)[C@H](CCCNC(=N)N)NC4=O)cc3)C(=C/C=C3/N(CCC[N+](C)(C)C)c4ccc(S(=O)(=O)O)cc4C3(C)C)/CCC2)=[N+](CCC[N+](C)(C)C)c2ccc(S(=O)(=O)O)cc21", "note": "[cRGD-ZW800-1]", "values": [{"measurement": "reduction of fluorescence signal by unlabeled cRGD", "setting": "U-87 MG cells", "value": 36, "unit": "%"}, {"measurement": "inhibition at 10 µM", "setting": "PDE4D2; [4]", "value": 10, "unit": "%"}, {"measurement": "remaining activity at 10 µM", "setting": "PDE4D2; [5]", "value": 90.3, "unit": "%"}, {"measurement": "mean TBR", "setting": "OSC-19 oral tumors", "value": "5.4 ± 1.1"}, {"measurement": "inhibition at 10 µM", "setting": "Adrenergic α2A; 10 μM cRGD-ZW800-1, format H, An, performed twice, read-out: % Inhibition of Control Specific Binding", "value": -4, "unit": "%"}, {"measurement": "remaining activity at 10 µM", "setting": "Adrenergic α2A; [6]", "value": 104, "unit": "%"}, {"measurement": "% Inhibition of Control Specific Binding", "setting": "[1]; 10 μM cRGD-ZW800-1, format Ag, performed twice", "value": 2, "unit": "%"}, {"measurement": "% of Control Specific Binding Mean", "setting": "[1]; 10 μM, mean of 2", "value": 97.6, "unit": "%"}, {"measurement": "inhibition at 10 µM", "setting": "Histamine H2; [4]", "value": -4, "unit": "%"}, {"measurement": "remaining activity at 10 µM", "setting": "Histamine H2; [5]", "value": 104, "unit": "%"}, {"measurement": "inhibition at 10 µM", "setting": "Acetylcholinesterase; 10 μM cRGD-ZW800-1, format H, performed twice, read-out: % Inhibition of Control Specific Binding", "value": 2, "unit": "%"}, {"measurement": "remaining activity at 10 µM", "setting": "Acetylcholinesterase; [6]", "value": 98.4, "unit": "%"}, {"measurement": "inhibition at 10 µM", "setting": "[2]; [7]", "value": 9, "unit": "%"}, {"measurement": "remaining activity at 10 µM", "setting": "[2]; [6]", "value": 91.4, "unit": "%"}, {"measurement": "inhibition at 10 µM", "setting": "Adrenergic β1; [4]", "value": 18, "unit": "%"}, {"measurement": "remaining activity at 10 µM", "setting": "Adrenergic β1; [5]", "value": 82.3, "unit": "%"}, {"measurement": "inhibition at 10 µM", "setting": "Histamine H1; [4]", "value": -5, "unit": "%"}, {"measurement": "remaining activity at 10 µM", "setting": "Histamine H1; [5]", "value": 105, "unit": "%"}, {"measurement": "inhibition at 10 µM", "setting": "Opioid µ (MOP); [7]", "value": 10, "unit": "%"}, {"measurement": "remaining activity at 10 µM", "setting": "Opioid µ (MOP); [6]", "value": 90.3, "unit": "%"}, {"measurement": "inhibition at 10 µM", "setting": "[3]; [7]", "value": -11, "unit": "%"}, {"measurement": "remaining activity at 10 µM", "setting": "[3]; [6]", "value": 111, "unit": "%"}, {"measurement": "inhibition at 10 µM", "setting": "Muscarinic M3; [4]", "value": -7, "unit": "%"}, {"measurement": "remaining activity at 10 µM", "setting": "Muscarinic M3; [5]", "value": 107, "unit": "%"}, {"measurement": "inhibition at 10 µM", "setting": "Endothelin ETA; [7]", "value": 1, "unit": "%"}, {"measurement": "remaining activity at 10 µM", "setting": "Endothelin ETA; [6]", "value": 98.6, "unit": "%"}]}]}
